According to US20050027003A1, “Methods of therapeutic treatment using retinoids with reduced side effects” (Allergan, Inc., priority 2003, published 2005):

Columns and labels:
Format in all cases: in vivo, human
[1] = test system: patients with moderate to very severe plaque psoriasis; test: Example 4: open-label extension study of oral tazarotene in plaque psoriasis; settings: 4.5 mg once daily, 12 weeks, across both groups
[2] = Example 8: PK and PD interactions of oral tazarotene and oral contraceptives; settings: up to 6 mg once daily
Protocol: It is the objective of this study to determine if there are pharmacokinetic (PK) and pharmacodynamic (PD) interactions between tazarotene and commonly prescribed oral contraceptives (OCs) when coadministered together.
Three separate clinical studies are conducted to evaluate the PK and PD interactions of oral tazarotene and OCs in healthy volunteers. Two studies evaluate daily doses of norethindrone (NE)/ethinyl estradiol (EE) with daily doses of tazarotene 1.1 mg (N=27) and 6 mg (N=29). The third study assesses the daily doses of norgestimate (NGM)/EE with daily doses of tazarotene 6 mg (N=26). OCs are administered for three consecutive menstrual cycles. Daily doses of tazarotene are started during the 2nd cycle and continued through the end of the studies. PK parameters for EE, NE, and NGM (AUC0-24 and Cmax) are determined before tazarotene dosing and after tazarotene dosing on day 6 of the 2nd and 3rd cycles. Serum concentrations of luteinizing hormone (LH) and follicle-stimulating hormone (FSH)-markers of contraceptive efficacy are also evaluated before tazarotene dosing and after tazarotene dosing on days 2, 4, and 6 of the 2nd and 3rd cycles. Serum progesterone levels are assessed on days 18 and 20 of the 2nd and 3rd cycles. […]

[3] = test system: patients with moderate to very severe plaque psoriasis; test: Example 4: open-label extension study of oral tazarotene in plaque psoriasis; settings: 4.5 mg once daily
Protocol: Two multicenter, double-blind, placebo-controlled studies ware conducted to evaluate the efficacy and safety of oral tazarotene (4.5 mg once daily) in patients with moderate to very severe plaque psoriasis. […] Efficacy evaluations include overall lesional assessment (OLA), percent body surface area involvement, global response to treatment, plaque elevation, scaling, and erythema. OLA is graded on a 6-point scale (0=none, 1=minimal, 2=mild, 3=moderate, 4=severe, 5=very severe).

[4] = test system: patient with severe psoriasis; test: Example 9: patient with severe psoriasis taking Ortho-Novum, tazarotene 6 mg per day; settings: after 30 days
From the text: The patient presents symptoms of severe psoriasis. The symptoms include lesions approximately 4 to 10 centimeters across appearing as raised patches of wine red skin many of which are covered in silvery white scales. The lesions are mostly dry and rough, and quite often noticeably warm to the touch. The lesions are present on the elbows, knees, scalp, and groin area. The patient experiences intense burning and itching associated with the lesions.
The patient is currently taking Ortho-Novum® for contraception.
Tazarotene at a dose of 6 mg per day is prescribed.

[5] = test system: patients with severe nodulocystic acne; test: Example 10: placebo-controlled parallel-group study of oral tazarotene in severe nodulocystic acne; settings: for patients withdrawing due to adverse events: placebo 0%
From the text: A multicenter, double-blind, randomized, placebo-controlled parallel-group study is undertaken to determine the efficacy of orally administered tazarotene in treating severe nodulocystic acne.
In addition, washout periods for other medications for this study are: 1 week for vitamin A supplements >5000 IU; 2 weeks for topical anti-acne medications (e.g., retinoids, azelaic acid, benzoyl peroxide); 2 weeks for topical or systemic antibiotic therapy that may alter the course of acne; and 6 months for systemic retinoids.
Patients are randomized to receive placebo or oral tazarotene (0.75, 1.5, 3, or 6 mg), in a 1:1:1:1:1 ratio once daily for 24 weeks. After this, the patients are followed without treatment for an additional 12 weeks. Patients discontinuing from the treatment period due to adverse effects or lack of efficacy are eligible for entry into the post-treatment phase.
In the study, overall acne severity is rated as: none (no inflammatory acne lesions); mild (few to several papules or pustules, no nodulocystic lesions); moderate (several to many papules or pustules, few to several nodulocystic lesions); and severe (numerous or extensive papules or pustules, many, for example, at least about 5 or at least about 10, nodulocystic lesions).
Treatment success is defined as at least moderate (about 50%) improvement on the following 7-point global response scale: • 0=completely cleared • 1=almost cleared (about 90% improvement) • 2=marked response (about 75% improvement) • 3=moderate response (about 50% improvement) • 4=slight response (about 25% improvement) • 5=condition unchanged • 6=condition worsened
In this study, facial nodulocystic lesion count includes lesions greater than 5 mm in size. Facial papular/pustular lesion count includes lesions less than or equal to 5 mm in size. Facial non-inflammatory lesion count includes open and closed comedones.
Sebum output is assessed every 4 weeks at selected centers using the Sebutape® patches, sold by Cuderm Corporation. Urinalysis, chemistry, and hematology values are monitored. Bone formation and resorption assessments (serum bone alkaline phosphatase and serum amino terminal telopeptides, respectively) at selected centers are monitored.
Bone mineral density of spine and proximal femur at selected centers is monitored. Ligament calcification or osteophyte formation (lateral X-ray of the cervical and thoracic spine, and ankle calcaneous) is monitored. Epiphyseal growth plate closure (internal oblique X-ray of the ankle in patients less than or equal to 21 years old) is monitored.

[6] = 0.75 to 6 mg once daily, 24 weeks

Compound: CCOC(=O)c1ccc(C#Cc2ccc3c(c2)C(C)(C)CCS3)nc1 [tazarotene]
- incidence of dry skin [1]: 25%
- incidence of headache [1]: 11%
- incidence of infection [1]: 10%
- effect on PK or efficacy of NE/EE and NGM/EE oral contraceptives [2]: does not affect
- changes in liver function test values or cholesterol levels [3]: no clinically significant changes
- serious adverse events considered related to the study treatment [3]: no serious adverse events
- incidence of arthralgia ([3]; 12 weeks, across both groups): 20%
- incidence of asthenia ([3]; 12 weeks, across both groups): 6%
- incidence of back pain ([3]; 12 weeks, across both groups): 11%
- incidence of cheilitis ([3]; 12 weeks, across both groups): 70%
- incidence of hypertriglyceridemia ([3]; 12 weeks, across both groups): 6%
- incidence of myalgia ([3]; 12 weeks, across both groups): 15%
- severity of lesions [4]: substantially lessened
- symptoms of itching and burning [4]: relieved
- patients withdrawing due to adverse events ([5]; 0.75 mg group (2/35)): 6%
- patients withdrawing due to adverse events ([5]; 1.5 mg group (0/37)): 0%
- incidence of treatment success (≧50% global improvement) vs placebo ([5]; 3 mg and 6 mg, week 24 and throughout post-treatment phase, p≦0.05): significantly higher incidence
- patients withdrawing due to adverse events ([5]; 3 mg group (2/37)): 5%
- patients withdrawing due to adverse events ([5]; 6 mg group (1/36)): 3%
- percentage of patients with at least a 90% reduction in facial nodulocystic lesion count vs placebo ([5]; 6 mg group, end of the post-treatment phase): significant superiority over placebo
- reduction of overall acne severity ([5]; 6 mg, week 16 until end of post-treatment phase, p≦0.01): significantly more than placebo
- bone formation and resorption (serum bone alkaline phosphatase, serum amino terminal telopeptides) [5, 6]: do not appear to be altered
- changes in urinalysis, chemistry, or hematology measures (incl. liver function tests, triglycerides, total cholesterol, HDL cholesterol) [5, 6]: None of the treatment groups show any consistent clinically significant changes
- reductions in number of facial papules or pustules and facial non-inflammatory acne lesions vs placebo ([5]; from week 8 onward): consistently greater reductions
- reductions in number of total facial nodulocystic lesions vs placebo ([5]; from week 8 onward): consistently greater reductions
- efficacy in severe nodulocystic acne ([5]; once-daily doses of 1.5, 3, and 6 mg): efficacious
